Reference: ChEMBL document CHEMBL3885861, “Open TG-GATES”

Species: Rattus norvegicus
Experiment: Open TG-GATES - Regimen: Single
Format: toxicity, organism-based, Sprague-Dawley
Parameters: regimen Single, gender Male, age 6 weeks
Conditions: in vivo, po, 50 mg/kg, route gavage, dose level Low; for APTT / Bas / Eos / Fbg / Hb / Ht / Lym / MCH / MCHC / MCV / Mono / Neu / PT / Plat / RBC / Ret / WBC: tissue Blood; for KIDNEY_L / KIDNEY_R / KIDNEY_TOTAL: tissue Kidney; for LIVER: tissue Liver; for A/G / ALP / ALT / AST / BUN / CRE / Ca / Cl / DBIL / GLC / IP / K / LDH / Na / PL / RALB / TBIL / TC / TG / TP / gamma-GTP: tissue Plasma

Compound `CN1C(=O)CCS(=O)(=O)C1c1ccc(Cl)cc1` (configuration not stated) [CHLORMEZANONE] has a TERMINAL_BW (3 h) of 228.4 g, an APTT (3 h) of 16.7 s and a Bas (3 h) of 0%. For the same compound, the Eos (3 h) was 1%, the Fbg (3 h) was 319.2 mg/dL and the Hb (3 h) was 13.2 g/dL. The Ht (3 h) was 39.3%, the Lym (3 h) was 73.8% and the MCH (3 h) was 21.6 pg. The MCHC (3 h) was 33.6%, the MCV (3 h) was 64.3 fL and the Mono (3 h) was 4%. The Neu (3 h) was 20.6%, the PT (3 h) was 13 s and the Plat (3 h) was 111.8 x10_4/uL. The RBC (3 h) was 611.6 x10_4/ul, the Ret (3 h) was 9.4% and the WBC (3 h) was 84.7 x10_2/uL. The KIDNEY_L (3 h) was 0.9 g, the KIDNEY_R (3 h) was 0.9 g and the KIDNEY_TOTAL (3 h) was 1.9 g. The LIVER (3 h) was 10.4 g, the A/G (3 h) was 0.9 and the ALP (3 h) was 1492 IU/L. The ALT (3 h) was 52.6 IU/L, the AST (3 h) was 80.2 IU/L and the BUN (3 h) was 8.8 mg/dL. The CRE (3 h) was 0.2 mg/dL, the Ca (3 h) was 11.6 mg/dL and the Cl (3 h) was 105.2 meq/L. It also gave a DBIL (3 h) of 0.018 mg/dL, a GLC (3 h) of 187 mg/dL and an IP (3 h) of 9.6 mg/dL. It also gave a K (3 h) of 4 meq/L, an LDH (3 h) of 60.2 IU/L and a Na (3 h) of 141.6 meq/L. For the same compound, the PL (3 h) was 155 mg/dL, the RALB (3 h) was 2.7 g/dL and the TBIL (3 h) was 0.046 mg/dL. The TC (3 h) was 83.6 mg/dL, the TG (3 h) was 75.4 mg/dL and the TP (3 h) was 5.7 g/dL. The gamma-GTP (3 h) was 1 IU/L, the TERMINAL_BW (6 h) was 227.2 g and the APTT (6 h) was 15 s. The Bas (6 h) was 0%, the Eos (6 h) was 0.8% and the Fbg (6 h) was 321.2 mg/dL. It also gave a Hb (6 h) of 13.8 g/dL, a Ht (6 h) of 40.9% and a Lym (6 h) of 76.8%. The MCH (6 h) was 21.6 pg, the MCHC (6 h) was 33.7% and the MCV (6 h) was 64.2 fL. For the same compound, the Mono (6 h) was 3.4%, the Neu (6 h) was 18.2% and the PT (6 h) was 13.2 s. It also gave a Plat (6 h) of 115.1 x10_4/uL, an RBC (6 h) of 637.2 x10_4/ul and a Ret (6 h) of 7.3%. It also gave a WBC (6 h) of 83.9 x10_2/uL, a KIDNEY_L (6 h) of 0.9 g and a KIDNEY_R (6 h) of 1 g. The KIDNEY_TOTAL (6 h) was 1.9 g, the LIVER (6 h) was 9.5 g and the A/G (6 h) was 0.9. For the same compound, the ALP (6 h) was 1829.6 IU/L, the ALT (6 h) was 38.6 IU/L and the AST (6 h) was 71.4 IU/L. It also gave a BUN (6 h) of 8.8 mg/dL, a CRE (6 h) of 0.2 mg/dL and a Ca (6 h) of 11.6 mg/dL. It also gave a Cl (6 h) of 107 meq/L, a DBIL (6 h) of 0.016 mg/dL and a GLC (6 h) of 189.8 mg/dL. For the same compound, the IP (6 h) was 10.3 mg/dL, the K (6 h) was 4.1 meq/L and the LDH (6 h) was 56.8 IU/L. For the same compound, the Na (6 h) was 143.2 meq/L, the PL (6 h) was 153 mg/dL and the RALB (6 h) was 2.7 g/dL. It also gave a TBIL (6 h) of 0.038 mg/dL, a TC (6 h) of 78 mg/dL and a TG (6 h) of 68.4 mg/dL. The TP (6 h) was 5.7 g/dL, the gamma-GTP (6 h) was 1.2 IU/L and the TERMINAL_BW (9 h) was 227.8 g. It also gave an APTT (9 h) of 14.1 s, a Bas (9 h) of 0% and an Eos (9 h) of 0.8%. For the same compound, the Fbg (9 h) was 351 mg/dL, the Hb (9 h) was 13.4 g/dL and the Ht (9 h) was 39.3%. The Lym (9 h) was 77.8%, the MCH (9 h) was 22.3 pg and the MCHC (9 h) was 34.1%. It also gave an MCV (9 h) of 65.5 fL, a Mono (9 h) of 2.2% and a Neu (9 h) of 18%. The PT (9 h) was 13.5 s, the Plat (9 h) was 121.2 x10_4/uL and the RBC (9 h) was 601.6 x10_4/ul. It also gave a Ret (9 h) of 8%, a WBC (9 h) of 76.9 x10_2/uL and a KIDNEY_L (9 h) of 1 g. The KIDNEY_R (9 h) was 0.9 g, the KIDNEY_TOTAL (9 h) was 1.9 g and the LIVER (9 h) was 9.2 g. It also gave an A/G (9 h) of 0.9, an ALP (9 h) of 1623.2 IU/L and an ALT (9 h) of 34.4 IU/L. It also gave an AST (9 h) of 71.6 IU/L, a BUN (9 h) of 9.4 mg/dL and a CRE (9 h) of 0.2 mg/dL. For the same compound, the Ca (9 h) was 11.2 mg/dL, the Cl (9 h) was 106.4 meq/L and the DBIL (9 h) was 0.02 mg/dL. The GLC (9 h) was 191.4 mg/dL, the IP (9 h) was 11.9 mg/dL and the K (9 h) was 4 meq/L. It also gave an LDH (9 h) of 57.6 IU/L, a Na (9 h) of 143.8 meq/L and a PL (9 h) of 121.4 mg/dL. It also gave an RALB (9 h) of 2.6 g/dL, a TBIL (9 h) of 0.038 mg/dL and a TC (9 h) of 67.2 mg/dL. For the same compound, the TG (9 h) was 50.4 mg/dL, the TP (9 h) was 5.5 g/dL and the gamma-GTP (9 h) was 1 IU/L. For the same compound, the TERMINAL_BW (24 h) was 234.7 g, the APTT (24 h) was 16.1 s and the Bas (24 h) was 0%. The Eos (24 h) was 0.8%, the Fbg (24 h) was 278.2 mg/dL and the Hb (24 h) was 13.6 g/dL. It also gave a Ht (24 h) of 39.7%, a Lym (24 h) of 75% and an MCH (24 h) of 21.7 pg. It also gave an MCHC (24 h) of 34.4%, an MCV (24 h) of 63.3 fL and a Mono (24 h) of 3.4%. For the same compound, the Neu (24 h) was 20.2%, the PT (24 h) was 13 s and the Plat (24 h) was 113.6 x10_4/uL. It also gave an RBC (24 h) of 626.8 x10_4/ul, a Ret (24 h) of 7.6% and a WBC (24 h) of 72.4 x10_2/uL. For the same compound, the KIDNEY_L (24 h) was 1.1 g, the KIDNEY_R (24 h) was 1 g and the KIDNEY_TOTAL (24 h) was 2.1 g. The LIVER (24 h) was 11.3 g, the A/G (24 h) was 0.9 and the ALP (24 h) was 1615.6 IU/L. For the same compound, the ALT (24 h) was 45 IU/L, the AST (24 h) was 77.4 IU/L and the BUN (24 h) was 14.8 mg/dL. The CRE (24 h) was 0.2 mg/dL, the Ca (24 h) was 11.1 mg/dL and the Cl (24 h) was 106.2 meq/L. It also gave a DBIL (24 h) of 0.02 mg/dL, a GLC (24 h) of 182.2 mg/dL and an IP (24 h) of 7.4 mg/dL. It also gave a K (24 h) of 4.2 meq/L, an LDH (24 h) of 83 IU/L and a Na (24 h) of 142 meq/L. For the same compound, the PL (24 h) was 137.8 mg/dL, the RALB (24 h) was 2.6 g/dL and the TBIL (24 h) was 0.024 mg/dL. For the same compound, the TC (24 h) was 80.4 mg/dL, the TG (24 h) was 92.4 mg/dL and the TP (24 h) was 5.6 g/dL. The gamma-GTP (24 h) was 1.2 IU/L.
